# Experimental data published in patent publication US20120190648A1, “FLUORINATED CYCLOPROPANE ANALOGS OF GLUTAMIC ACID” (priority 2009, published 2012).
# Read-outs that look alike come from different tables or passages of the source.
# Molecular target: mGlu4 receptor (Rattus norvegicus, UniProt P31423)
# Assay: mGlu4 receptor test at different doses (1 nM to 1 mM) to determine EC50
# Type: cell-based
# Description: The compounds according to the invention have been tested on the mGlu4 receptor at different doses (between 1 nM and 1 mM) in order to determine their EC50 value. This test has been carried out according to the protocol described in: C. Selvam, C. Goudet, N. Oueslati, J.-P. Pin, F. Acher J. Med. Chem. 2007, 50, 4656-4664.
# Sequence of mGlu4 receptor (P31423 33-912): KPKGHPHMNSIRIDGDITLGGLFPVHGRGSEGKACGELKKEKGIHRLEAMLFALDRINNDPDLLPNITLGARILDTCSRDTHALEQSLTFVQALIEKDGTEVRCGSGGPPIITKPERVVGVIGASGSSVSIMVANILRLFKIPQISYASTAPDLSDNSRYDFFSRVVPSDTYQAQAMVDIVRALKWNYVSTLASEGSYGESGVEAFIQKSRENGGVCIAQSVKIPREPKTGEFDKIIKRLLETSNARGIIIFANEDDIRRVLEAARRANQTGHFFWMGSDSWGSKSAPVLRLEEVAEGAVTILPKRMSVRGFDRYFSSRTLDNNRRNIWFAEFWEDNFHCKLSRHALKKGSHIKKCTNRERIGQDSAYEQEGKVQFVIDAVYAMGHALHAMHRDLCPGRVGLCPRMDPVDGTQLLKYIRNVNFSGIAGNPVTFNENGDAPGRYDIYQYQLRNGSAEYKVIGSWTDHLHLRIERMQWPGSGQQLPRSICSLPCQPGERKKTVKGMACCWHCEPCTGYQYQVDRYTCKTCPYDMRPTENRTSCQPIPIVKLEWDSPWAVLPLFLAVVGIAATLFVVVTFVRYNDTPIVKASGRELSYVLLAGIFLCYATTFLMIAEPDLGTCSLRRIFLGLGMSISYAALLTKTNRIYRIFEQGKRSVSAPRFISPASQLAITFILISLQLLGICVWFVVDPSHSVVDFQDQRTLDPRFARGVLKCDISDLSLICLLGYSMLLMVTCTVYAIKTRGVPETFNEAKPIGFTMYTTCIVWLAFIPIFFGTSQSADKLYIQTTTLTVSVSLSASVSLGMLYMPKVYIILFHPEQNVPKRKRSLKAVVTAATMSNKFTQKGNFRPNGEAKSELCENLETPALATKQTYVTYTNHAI
"EC50 (mGlu4 receptor, doses between 1 nM and 1 mM, protocol of Selvam et al. J. Med. Chem. 2007, 50, 4656-4664, read-out: EC50) [µM]",SMILES,EC50 [µM]
,NC1(C(=O)O)CC1(F)CP(=O)(O)O (racemic) [cis-I-4],0.34
85.6,NC1(C(=O)O)CC1(F)CS(=O)(=O)O (racemic) [cis-I-6],
,N[C@]1(C(=O)O)C[C@@]1(F)C(O)P(=O)(O)O (mixture of isomers) [cis-I-3],27.4
